Reference: patent US20230026696A1, “TRPV4 RECEPTOR LIGANDS” (UNIVERSITY OF UTAH RESEARCH FOUNDATION, priority 2019, published 2023)
Counter-ions that a name gives are not always drawn.

Target: T1, human TRPV4 (Homo sapiens, UniProt Q9HBA0)
T1 construct: expressed in transfected cells
Test: Fluorometric cell-based Ca2+ flux assay, HEK-293 cells stably overexpressing human TRPV4
Settings: HEK-293 stably overexpressing human TRPV4; agonist GSK1016790A 30 nM
Description: Fluorometric cell-based Ca^2+ flux assays were performed to assess TRPV4 antagonist activity and determine potency (IC50 values) in human embryonic kidney-293 cells (HEK-293) that stably overexpress human TRPV4. The assays were performed according to methods described in: Deering-Rice, C. E., Johansen, M. E., Roberts, J. K., Thomas, K. C., Romero, E. G., Lee, J., Yost, G. S., Veranth, J. M., and Reilly, C. A. (2012), Mol. Pharmacol. 81(3), 411-419; Shapiro, D., Deering-Rice, C. E., Romero, E. G., Hughen, R. W., Light, A. R., Veranth, J. M., and Reilly, C. A. (2013), Chem Res. Toxicol., 26, 750-758; and Deering-Rice, C. E., Mitchell, V. K., Romero, E. G., Abdel Aziz, M. H., and Reilly, C. A. (2014), Pharmacol. Res. & Perspectives. 2(5), 1-10.
The HEK-293 cells stably overexpressing human TRPV4 were grown to confluence in 2% (w/v) gelatin-coated 96-well plates in DMEM:F12 media supplemented with 5% fetal bovine serum, 1× penicillin/streptomycin (Invitrogen) and Geneticin (300 μg/mL).
The HEK-293 cells were prepared for assay by replacing the growth media with a 1:1 solution of LHC-9 and Fluo 4-Direct (Invitrogen) reagent containing Fluo 4-AM, pluronic F-127, probenecid, and a proprietary quencher dye. The cells were then incubated at 37° C. for 1 h in a cell culture incubator. The cells were subsequently washed by replacing the loading solution with LHC-9 containing 1 mM water-soluble probenecid (Invitrogen), 750 μM Trypan Red (ATT Bioquest), and a test compound (at various concentrations). The cells were incubated for an additional 30 minutes at 37° C. to allow for Fluo 4-AM cleavage and activation, as well as equilibration to both the test compounds and Fluo 4.
An agonist treatment solution (90 nM GSK1016790A, a potent activator of TRPV4) was prepared in LHC9 at 3× concentration and 25 μL was added to 50 μL of media on the cells in 96 well plates, providing a final concentration of 30 nM. Changes in cellular fluorescence were monitored with a BMG Labtech NOVOStar fluorescence plate reader for 1 minute at 37° C. Data were quantified as the maximum rate of change in fluorescence intensity (max ΔF/s), corrected for media only treatment (negative control), and represented as the percentage of response relative to the no antagonist control. A minimum of three replicates were used for each treatment condition, with a minimum of 8 concentrations to derive the IC50 values reported for each antagonist. The IC50 values for each antagonist, which are shown in Table 4 below, were calculated according to methods described in the assays were performed according to methods described in: Deering-Rice, C. E., Johansen, M. E., Roberts, J. K., Thomas, K. C., Romero, E. G., Lee, J., Yost, G. S., Veranth, J. M., and Reilly, C. A. (2012), Mol. Pharmacol. 81(3), 411-419; Shapiro, D., Deering-Rice, C. E., Romero, E. G., Hughen, R. W., Light, A. R., Veranth, J. M., and Reilly, C. A. (2013), Chem Res. Toxicol., 26, 750-758; and Deering-Rice, C. E., Mitchell, V. K., Romero, E. G., Abdel Aziz, M. H., and Reilly, C. A. (2014), Pharmacol. Res. & Perspectives. 2(5), 1-10.

T1 sequence (Q9HBA0 whole entry): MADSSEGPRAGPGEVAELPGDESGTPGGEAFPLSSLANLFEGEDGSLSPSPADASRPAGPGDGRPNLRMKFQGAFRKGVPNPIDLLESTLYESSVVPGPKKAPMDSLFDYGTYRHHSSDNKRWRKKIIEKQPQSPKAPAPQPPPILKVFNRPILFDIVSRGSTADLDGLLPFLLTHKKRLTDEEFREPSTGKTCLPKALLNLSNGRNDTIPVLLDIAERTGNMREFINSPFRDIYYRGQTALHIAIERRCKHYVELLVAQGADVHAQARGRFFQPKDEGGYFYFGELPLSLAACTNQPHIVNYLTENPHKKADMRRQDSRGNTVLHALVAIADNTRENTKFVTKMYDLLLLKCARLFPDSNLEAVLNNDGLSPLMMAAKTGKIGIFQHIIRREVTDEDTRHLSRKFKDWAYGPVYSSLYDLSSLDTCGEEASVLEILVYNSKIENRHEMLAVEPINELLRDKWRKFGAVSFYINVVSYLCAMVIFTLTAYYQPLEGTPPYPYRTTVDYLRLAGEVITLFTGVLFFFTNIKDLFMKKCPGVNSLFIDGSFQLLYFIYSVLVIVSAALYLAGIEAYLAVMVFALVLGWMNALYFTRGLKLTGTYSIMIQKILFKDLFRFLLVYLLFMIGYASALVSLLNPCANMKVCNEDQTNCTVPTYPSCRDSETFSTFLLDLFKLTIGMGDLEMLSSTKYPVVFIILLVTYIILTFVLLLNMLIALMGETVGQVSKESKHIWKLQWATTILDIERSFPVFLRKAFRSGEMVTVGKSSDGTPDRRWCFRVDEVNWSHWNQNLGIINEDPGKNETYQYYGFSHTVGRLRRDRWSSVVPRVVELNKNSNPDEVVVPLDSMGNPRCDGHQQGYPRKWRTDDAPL

SMILES | IC50
N#Cc1ccc(OCC2(NC(=O)CO)CN(S(=O)(=O)c3ccc(Cl)cc3Cl)C2)cc1F [Compound 56, N-(3-((4-Cyano-3-fluorophenoxy)methyl)-1-((2,4-dichlorophenyl)sulfonyl)azetidin-3-yl)-2-hydroxyacetamide] | 100 nM
N#Cc1ccc(OCC2(NS(=O)(=O)CCN)CN(S(=O)(=O)c3ccc(Cl)cc3Cl)C2)cc1F [Compound 57, 2-Amino-N-(3-((4-cyano-3-fluorophenoxy)methyl)-1-((2,4-dichlorophenyl)sulfonyl)azetidin-3-yl)ethane-1-sulfonamide hydrochloride] | 53 nM
N#Cc1ccc(OCC2(CO)CN(S(=O)(=O)c3ccccc3Cl)C2)cc1F [Compound 58, 4-((1-((2-Chlorophenyl)sulfonyl)-3-(hydroxymethyl)azetidin-3-yl)methoxy)-2-fluorobenzonitrile] | 413 nM
N#Cc1ccc(OCC2(CO)CN(S(=O)(=O)c3ccc(C(F)(F)F)cc3Cl)C2)cc1F [Compound 59, 4-((1-((2-Chloro-4-(trifluoromethyl)phenyl)sulfonyl)-3-(hydroxymethyl)azetidin-3-yl)methoxy)-2-fluorobenzonitrile] | 481 nM
N#Cc1ccc(S(=O)(=O)N2CC(CO)(COc3ccc(C#N)c(F)c3)C2)c(Cl)c1 [Compound 60, 4-((1-((2-Chloro-4-cyanophenyl)sulfonyl)-3-(hydroxymethyl)azetidin-3-yl)methoxy)-2-fluorobenzonitrile] | 54 nM
Cc1ccc(S(=O)(=O)N2CC(CO)(COc3ccc(C#N)c(F)c3)C2)c(C)c1 [Compound 62, 4-((1-((2,4-Dimethylphenyl)sulfonyl)-3-(hydroxymethyl)azetidin-3-yl)methoxy)-2-fluorobenzonitrile] | 472 nM
COC(=O)c1ccc(S(=O)(=O)N2CC(CO)(COc3ccc(C#N)c(F)c3)C2)cc1 [Compound 63, Methyl 4-((3-((4-cyano-3-fluorophenoxy)methyl)-3-(hydroxymethyl)azetidin-1-yl)sulfonyl)benzoate] | 5000 nM
N#Cc1ccc(OCC2(CO)CN(S(=O)(=O)c3ccc(C(F)(F)F)nc3)C2)cc1F [Compound 64, 2-Fluoro-4-((3-(hydroxymethyl)-1-((6-(trifluoromethyl)pyridin-3-yl)sulfonyl)azetidin-3-yl)methoxy)benzonitrile] | 5000 nM
Cc1nc(C)c(S(=O)(=O)N2CC(CO)(COc3ccc(C#N)c(F)c3)C2)s1 [Compound 65, 4-((1-((2,4-Dimethylthiazol-5-yl)sulfonyl)-3-(hydroxymethyl)azetidin-3-yl)methoxy)-2-fluorobenzonitrile] | 5000 nM
Cc1nn(C)cc1S(=O)(=O)N1CC(CO)(COc2ccc(C#N)c(F)c2)C1 [Compound 66, 4-((1-((1,3-Dimethyl-1H-pyrazol-4-yl)sulfonyl)-3-(hydroxymethyl)azetidin-3-yl)methoxy)-2-fluorobenzonitrile] | 10000 nM
N#Cc1ccc(OCC2(CO)CN(S(=O)(=O)c3ccc(F)c(Cl)c3)C2)cc1F [Compound 67, 4-((1-((3-chloro-4-fluorophenyl)sulfonyl)-3-(hydroxymethyl)azetidin-3-yl)methoxy)-2-fluorobenzonitrile] | 5000 nM
N#Cc1ccc(OCC2(CO)CN(S(=O)(=O)c3cc(Cl)cc(Cl)c3)C2)cc1F [Compound 68, 4-((1-((3,5-Dichlorophenyl)sulfonyl)-3-(hydroxymethyl)azetidin-3-yl)methoxy)-2-fluorobenzonitrile] | 5000 nM
CS(=O)(=O)c1ccc(S(=O)(=O)N2CC(CO)(COc3ccc(C#N)c(F)c3)C2)cc1 [Compound 69, 2-Fluoro-4-((3-(hydroxymethyl)-1-((4-(methylsulfonyl)phenyl)sulfonyl)azetidin-3-yl)methoxy)benzonitrile] | 5000 nM
N#Cc1ccc(OCC2(CO)CN(S(=O)(=O)c3cccc(C(F)(F)F)c3)C2)cc1F [Compound 70, 2-Fluoro-4-((3-(hydroxymethyl)-1-((3-(trifluoromethyl)phenyl)sulfonyl)azetidin-3-yl)methoxy)benzonitrile] | 5000 nM
N#Cc1ccc(OCC2(CO)CN(S(=O)(=O)c3ccccc3)C2)cc1F [Compound 72, 2-Fluoro-4-((3-(hydroxymethyl)-1-(phenylsulfonyl)azetidin-3-yl)methoxy)benzonitrile] | 5000 nM
Cc1ccc(S(=O)(=O)N2CC(CO)(COc3ccc(C#N)c(F)c3)C2)cc1 [Compound 73, 2-Fluoro-4-((3-(hydroxymethyl)-1-tosylazetidin-3-yl)methoxy)benzonitrile] | 3000 nM
Cc1cc(Cl)ccc1S(=O)(=O)N1CC(CO)(COc2ccc(C#N)c(F)c2)C1 [Compound 74, 4-((1-((4-Chloro-2-methylphenyl)sulfonyl)-3-(hydroxymethyl)azetidin-3-yl)methoxy)-2-fluorobenzonitrile] | 520 nM
N#Cc1ccc(OCC2(CO)CN(S(=O)(=O)c3c(Cl)cccc3Cl)C2)cc1F [Compound 75, 4-((1-((2,6-Dichlorophenyl)sulfonyl)-3-(hydroxymethyl)azetidin-3-yl)methoxy)-2-fluorobenzonitrile] | > 1300 nM
Cc1ccccc1S(=O)(=O)N1CC(CO)(COc2ccc(C#N)c(F)c2)C1 [Compound 76, 2-Fluoro-4-((3-(hydroxymethyl)-1-(o-tolylsulfonyl)azetidin-3-yl)methoxy)benzonitrile] | > 2500 nM
Cc1cc(F)ccc1S(=O)(=O)N1CC(CO)(COc2ccc(C#N)c(F)c2)C1 [Compound 77, 2-Fluoro-4-((1-((4-fluoro-2-methylphenyl)sulfonyl)-3-(hydroxymethyl)azetidin-3-yl)methoxy)benzonitrile] | > 2500 nM
N#Cc1ccc(OCC2(CO)CN(S(=O)(=O)c3ccc(Cl)cc3F)C2)cc1F [Compound 78, 4-((1-((4-Chloro-2-fluorophenyl)sulfonyl)-3-(hydroxymethyl)azetidin-3-yl)methoxy)-2-fluorobenzonitrile] | 100 to 500 nM
Cc1cc(C#N)ccc1S(=O)(=O)N1CC(CO)(COc2ccc(C#N)c(F)c2)C1 [Compound 79, 4-((1-((4-Cyano-2-methylphenyl)sulfonyl)-3-(hydroxymethyl)azetidin-3-yl)methoxy)-2-fluorobenzonitrile] | > 1300 nM
COC(=O)c1ccc(S(=O)(=O)N2CC(CO)(COc3ccc(C#N)c(F)c3)C2)c(Cl)c1 [Compound 80, Methyl 3-chloro-4-((3-((4-cyano-3-fluorophenoxy)methyl)-3-(hydroxymethyl)azetidin-1-yl)sulfonyl)benzoate] | > 850 nM
N#Cc1ccc(OCC2(CO)CN(S(=O)(=O)c3ccc(Cl)cc3C#N)C2)cc1F [Compound 81, 4-((1-((4-Chloro-2-cyanophenyl)sulfonyl)-3-(hydroxymethyl)azetidin-3-yl)methoxy)-2-fluorobenzonitrile] | 5 nM
Cc1ccc(S(=O)(=O)N2CC(CO)(COc3ccc(C#N)c(F)c3)C2)c(Cl)c1 [Compound 82, 4-((1-((2-Chloro-4-methylphenyl)sulfonyl)-3-(hydroxymethyl)azetidin-3-yl)methoxy)-2-fluorobenzonitrile] | > 27 nM
COc1ccc(S(=O)(=O)N2CC(CO)(COc3ccc(C#N)c(F)c3)C2)c(Cl)c1 [Compound 83, 4-((1-((2-chloro-4-methoxyphenyl)sulfonyl)-3-(hydroxymethyl)azetidin-3-yl)methoxy)-2-fluorobenzonitrile] | > 64 nM
N#Cc1ccc(OCC2(CO)CN(S(=O)(=O)c3ccc(Cl)cc3)C2)cc1F [Compound 84, 4-((1-((4-Chlorophenyl)sulfonyl)-3-(hydroxymethyl)azetidin-3-yl)methoxy)-2-fluorobenzonitrile] | > 302 nM
N#Cc1ccc(OCC2(CO)CN(S(=O)(=O)c3ccccc3C#N)C2)cc1F [Compound 85, 4-((1-((2-Cyanophenyl)sulfonyl)-3-(hydroxymethyl)azetidin-3-yl)methoxy)-2-fluorobenzonitrile] | 4.9 nM
